Values quoted from earlier work, collected in patent US9585955B2 (priority 2005, dated 2017).

Details: 20° C. and 2 atm pressure

## [N-]=[N+]=O [Nitrous oxide]
  volume of water in which one liter of the gas dissolves: 1.5 L
